Measured values taken from ChEMBL document CHEMBL3745676, “Alkylamino derivatives of N-benzylpyrazine-2-carboxamide: synthesis and antimycobacterial evaluation” (Medchemcomm, 2015).
Values after ≈ are worked out from the molar mass of the structure shown.

Columns and labels:
Format in all cases: functional
[1] = system: Mycobacterium tuberculosis; assay: Antimycobacterial activity against multi-drug resistant Mycobacterium tuberculosis 7357/1998 after 14 days by microplate dilution method; settings: 7357/1998, 336 h
[2] = system: Mycobacterium tuberculosis; assay: Antimycobacterial activity against multi-drug resistant Mycobacterium tuberculosis 7357/1998 after 21 days by microplate dilution method; settings: 7357/1998, 504 h
[3] = system: Mycobacterium tuberculosis; assay: Antimycobacterial activity against multi-drug resistant Mycobacterium tuberculosis 234/2005 after 14 days by microplate dilution method; settings: 234/2005, 336 h
[4] = system: Mycobacterium tuberculosis; assay: Antimycobacterial activity against multi-drug resistant Mycobacterium tuberculosis 234/2005 after 21 days by microplate dilution method; settings: 234/2005, 504 h
[5] = system: Mycobacterium tuberculosis; assay: Antimycobacterial activity against multi-drug resistant Mycobacterium tuberculosis 9449/2007 after 14 days by microplate dilution method; settings: 9449/2007, 336 h
[6] = system: Mycobacterium tuberculosis; assay: Antimycobacterial activity against multi-drug resistant Mycobacterium tuberculosis 9449/2007 after 21 days by microplate dilution method; settings: 9449/2007, 504 h
[7] = system: Mycobacterium tuberculosis; assay: Antimycobacterial activity against multi-drug resistant Mycobacterium tuberculosis 8666/2010 after 14 days by microplate dilution method; settings: 8666/2010, 336 h
[8] = system: Mycobacterium tuberculosis; assay: Antimycobacterial activity against multi-drug resistant Mycobacterium tuberculosis 8666/2010 after 21 days by microplate dilution method; settings: 8666/2010, 504 h
[9] = system: Mycobacterium tuberculosis; assay: Antimycobacterial activity against multi-drug resistant Mycobacterium tuberculosis Praha 1 after 14 days by microplate dilution method; settings: Praha 1, 336 h
[10] = system: Mycobacterium tuberculosis; assay: Antimycobacterial activity against multi-drug resistant Mycobacterium tuberculosis Praha 1 after 21 days by microplate dilution method; settings: Praha 1, 504 h
[11] = system: Mycobacterium tuberculosis; assay: Antimycobacterial activity against multi-drug resistant Mycobacterium tuberculosis Praha 4 after 14 days by microplate dilution method; settings: Praha 4, 336 h
[12] = system: Mycobacterium tuberculosis; assay: Antimycobacterial activity against multi-drug resistant Mycobacterium tuberculosis Praha 4 after 21 days by microplate dilution method; settings: Praha 4, 504 h
[13] = system: Mycobacterium tuberculosis; assay: Antimycobacterial activity against multi-drug resistant Mycobacterium tuberculosis Praha 131 after 14 days by microplate dilution method; settings: Praha 131, 336 h
[14] = system: Mycobacterium tuberculosis; assay: Antimycobacterial activity against multi-drug resistant Mycobacterium tuberculosis Praha 131 after 21 days by microplate dilution method; settings: Praha 131, 504 h

SMILES	MIC [1] [µM]	MIC [2] [µM]	MIC [3] [µM]	MIC [4] [µM]	MIC [5] [µM]	MIC [6] [µM]	MIC [7] [µM]	MIC [8] [µM]	MIC [9] [µM]	MIC [10] [µM]	MIC [11] [µM]	MIC [12] [µM]	MIC [13] [µM]	MIC [14] [µM]
CCCCCCCNc1cncc(C(=O)NCc2ccccc2)n1	16 (≈ 5.22 µg/mL)	16 (≈ 5.22 µg/mL)	16 (≈ 5.22 µg/mL)	16 (≈ 5.22 µg/mL)	16 (≈ 5.22 µg/mL)	16 (≈ 5.22 µg/mL)	16 (≈ 5.22 µg/mL)	16 (≈ 5.22 µg/mL)	16 (≈ 5.22 µg/mL)	16 (≈ 5.22 µg/mL)	8 (≈ 2.61 µg/mL)	16 (≈ 5.22 µg/mL)	8 (≈ 2.61 µg/mL)	16 (≈ 5.22 µg/mL)
NNC(=O)c1ccncc1 [ISONIAZID]	16 (≈ 2.19 µg/mL)	32 (≈ 4.39 µg/mL)	16 (≈ 2.19 µg/mL)	16 (≈ 2.19 µg/mL)	16 (≈ 2.19 µg/mL)	16 (≈ 2.19 µg/mL)	16 (≈ 2.19 µg/mL)	32 (≈ 4.39 µg/mL)	16 (≈ 2.19 µg/mL)	16 (≈ 2.19 µg/mL)	16 (≈ 2.19 µg/mL)	16 (≈ 2.19 µg/mL)	16 (≈ 2.19 µg/mL)	16 (≈ 2.19 µg/mL)
CCCCCNc1nccnc1C(=O)NCc1ccccc1	1000 (≈ 298 µg/mL)	> 1000	1000 (≈ 298 µg/mL)	> 1000	1000 (≈ 298 µg/mL)	> 1000	1000 (≈ 298 µg/mL)	> 1000	1000 (≈ 298 µg/mL)	> 1000	1000 (≈ 298 µg/mL)	> 1000	1000 (≈ 298 µg/mL)	> 1000
CCCCCCCCNc1cnc(C(=O)NCc2ccccc2)cn1	8 (≈ 2.72 µg/mL)	8 (≈ 2.72 µg/mL)	4 (≈ 1.36 µg/mL)	8 (≈ 2.72 µg/mL)	8 (≈ 2.72 µg/mL)	8 (≈ 2.72 µg/mL)	4 (≈ 1.36 µg/mL)	8 (≈ 2.72 µg/mL)	4 (≈ 1.36 µg/mL)	8 (≈ 2.72 µg/mL)	8 (≈ 2.72 µg/mL)	8 (≈ 2.72 µg/mL)	4 (≈ 1.36 µg/mL)	4 (≈ 1.36 µg/mL)
CCCCNc1nccnc1C(=O)NCc1ccccc1	125 (≈ 35.5 µg/mL)	250 (≈ 71.1 µg/mL)	125 (≈ 35.5 µg/mL)	250 (≈ 71.1 µg/mL)	125 (≈ 35.5 µg/mL)	250 (≈ 71.1 µg/mL)	125 (≈ 35.5 µg/mL)	250 (≈ 71.1 µg/mL)	125 (≈ 35.5 µg/mL)	125 (≈ 35.5 µg/mL)	125 (≈ 35.5 µg/mL)	125 (≈ 35.5 µg/mL)	125 (≈ 35.5 µg/mL)	250 (≈ 71.1 µg/mL)
CCCCCCNc1cnc(C(=O)NCc2ccccc2)cn1	8 (≈ 2.5 µg/mL)	8 (≈ 2.5 µg/mL)	4 (≈ 1.25 µg/mL)	8 (≈ 2.5 µg/mL)	8 (≈ 2.5 µg/mL)	8 (≈ 2.5 µg/mL)	4 (≈ 1.25 µg/mL)	8 (≈ 2.5 µg/mL)	4 (≈ 1.25 µg/mL)	8 (≈ 2.5 µg/mL)	8 (≈ 2.5 µg/mL)	8 (≈ 2.5 µg/mL)	4 (≈ 1.25 µg/mL)	4 (≈ 1.25 µg/mL)
CCCCCCNc1cncc(C(=O)NCc2ccccc2)n1	32 (≈ 10 µg/mL)	32 (≈ 10 µg/mL)	16 (≈ 5 µg/mL)	32 (≈ 10 µg/mL)	32 (≈ 10 µg/mL)	32 (≈ 10 µg/mL)	16 (≈ 5 µg/mL)	32 (≈ 10 µg/mL)	16 (≈ 5 µg/mL)	32 (≈ 10 µg/mL)	32 (≈ 10 µg/mL)	32 (≈ 10 µg/mL)	16 (≈ 5 µg/mL)	32 (≈ 10 µg/mL)
CCCCCNc1cncc(C(=O)NCc2ccccc2)n1	32 (≈ 9.55 µg/mL)	62.5 (≈ 18.6 µg/mL)	62.5 (≈ 18.6 µg/mL)	62.5 (≈ 18.6 µg/mL)	32 (≈ 9.55 µg/mL)	62.5 (≈ 18.6 µg/mL)	62.5 (≈ 18.6 µg/mL)	62.5 (≈ 18.6 µg/mL)	62.5 (≈ 18.6 µg/mL)	62.5 (≈ 18.6 µg/mL)	32 (≈ 9.55 µg/mL)	62.5 (≈ 18.6 µg/mL)	32 (≈ 9.55 µg/mL)	62.5 (≈ 18.6 µg/mL)
CCCCNc1cncc(C(=O)NCc2ccccc2)n1	62.5 (≈ 17.8 µg/mL)	62.5 (≈ 17.8 µg/mL)	62.5 (≈ 17.8 µg/mL)	62.5 (≈ 17.8 µg/mL)	62.5 (≈ 17.8 µg/mL)	125 (≈ 35.5 µg/mL)	62.5 (≈ 17.8 µg/mL)	62.5 (≈ 17.8 µg/mL)	62.5 (≈ 17.8 µg/mL)	62.5 (≈ 17.8 µg/mL)	32 (≈ 9.1 µg/mL)	62.5 (≈ 17.8 µg/mL)	32 (≈ 9.1 µg/mL)	62.5 (≈ 17.8 µg/mL)
CCCCNc1cnc(C(=O)NCc2ccccc2)cn1	125 (≈ 35.5 µg/mL)	125 (≈ 35.5 µg/mL)	125 (≈ 35.5 µg/mL)	250 (≈ 71.1 µg/mL)	62.5 (≈ 17.8 µg/mL)	125 (≈ 35.5 µg/mL)	125 (≈ 35.5 µg/mL)	250 (≈ 71.1 µg/mL)	125 (≈ 35.5 µg/mL)	250 (≈ 71.1 µg/mL)	62.5 (≈ 17.8 µg/mL)	125 (≈ 35.5 µg/mL)	62.5 (≈ 17.8 µg/mL)	125 (≈ 35.5 µg/mL)
CCCCCNc1cnc(C(=O)NCc2ccccc2)cn1	16 (≈ 4.77 µg/mL)	32 (≈ 9.55 µg/mL)	16 (≈ 4.77 µg/mL)	32 (≈ 9.55 µg/mL)	16 (≈ 4.77 µg/mL)	32 (≈ 9.55 µg/mL)	16 (≈ 4.77 µg/mL)	32 (≈ 9.55 µg/mL)	16 (≈ 4.77 µg/mL)	32 (≈ 9.55 µg/mL)	16 (≈ 4.77 µg/mL)	32 (≈ 9.55 µg/mL)	16 (≈ 4.77 µg/mL)	16 (≈ 4.77 µg/mL)
CCCCCCNc1nccnc1C(=O)NCc1ccccc1	1000 (≈ 312 µg/mL)	> 1000	1000 (≈ 312 µg/mL)	> 1000	1000 (≈ 312 µg/mL)	1000 (≈ 312 µg/mL)	1000 (≈ 312 µg/mL)	> 1000	1000 (≈ 312 µg/mL)	> 1000	1000 (≈ 312 µg/mL)	> 1000	1000 (≈ 312 µg/mL)	> 1000
CCCCCCCCNc1nccnc1C(=O)NCc1ccccc1	> 1000	> 1000	> 1000	> 1000	> 1000	> 1000	> 1000	> 1000	> 1000	> 1000	> 1000	> 1000	> 1000	> 1000
CCCCCCCNc1cnc(C(=O)NCc2ccccc2)cn1	4 (≈ 1.31 µg/mL)	8 (≈ 2.61 µg/mL)	4 (≈ 1.31 µg/mL)	4 (≈ 1.31 µg/mL)	4 (≈ 1.31 µg/mL)	8 (≈ 2.61 µg/mL)	4 (≈ 1.31 µg/mL)	4 (≈ 1.31 µg/mL)	4 (≈ 1.31 µg/mL)	4 (≈ 1.31 µg/mL)	4 (≈ 1.31 µg/mL)	8 (≈ 2.61 µg/mL)	2 (≈ 0.653 µg/mL)	4 (≈ 1.31 µg/mL)
CCCCCCCCNc1cncc(C(=O)NCc2ccccc2)n1	16 (≈ 5.45 µg/mL)	16 (≈ 5.45 µg/mL)	16 (≈ 5.45 µg/mL)	16 (≈ 5.45 µg/mL)	16 (≈ 5.45 µg/mL)	16 (≈ 5.45 µg/mL)	16 (≈ 5.45 µg/mL)	16 (≈ 5.45 µg/mL)	16 (≈ 5.45 µg/mL)	16 (≈ 5.45 µg/mL)	16 (≈ 5.45 µg/mL)	16 (≈ 5.45 µg/mL)	16 (≈ 5.45 µg/mL)	16 (≈ 5.45 µg/mL)
CCCCCCCNc1nccnc1C(=O)NCc1ccccc1	1000 (≈ 326 µg/mL)	1000 (≈ 326 µg/mL)	1000 (≈ 326 µg/mL)	> 1000	> 1000	> 1000	1000 (≈ 326 µg/mL)	> 1000	1000 (≈ 326 µg/mL)	> 1000	> 1000	> 1000	1000 (≈ 326 µg/mL)	> 1000
